Molecular target: T1, Mucosa-associated lymphoid tissue lymphoma translocation protein 1 (Homo sapiens, UniProt Q9UDY8)
T1 sequence (Q9UDY8 whole entry): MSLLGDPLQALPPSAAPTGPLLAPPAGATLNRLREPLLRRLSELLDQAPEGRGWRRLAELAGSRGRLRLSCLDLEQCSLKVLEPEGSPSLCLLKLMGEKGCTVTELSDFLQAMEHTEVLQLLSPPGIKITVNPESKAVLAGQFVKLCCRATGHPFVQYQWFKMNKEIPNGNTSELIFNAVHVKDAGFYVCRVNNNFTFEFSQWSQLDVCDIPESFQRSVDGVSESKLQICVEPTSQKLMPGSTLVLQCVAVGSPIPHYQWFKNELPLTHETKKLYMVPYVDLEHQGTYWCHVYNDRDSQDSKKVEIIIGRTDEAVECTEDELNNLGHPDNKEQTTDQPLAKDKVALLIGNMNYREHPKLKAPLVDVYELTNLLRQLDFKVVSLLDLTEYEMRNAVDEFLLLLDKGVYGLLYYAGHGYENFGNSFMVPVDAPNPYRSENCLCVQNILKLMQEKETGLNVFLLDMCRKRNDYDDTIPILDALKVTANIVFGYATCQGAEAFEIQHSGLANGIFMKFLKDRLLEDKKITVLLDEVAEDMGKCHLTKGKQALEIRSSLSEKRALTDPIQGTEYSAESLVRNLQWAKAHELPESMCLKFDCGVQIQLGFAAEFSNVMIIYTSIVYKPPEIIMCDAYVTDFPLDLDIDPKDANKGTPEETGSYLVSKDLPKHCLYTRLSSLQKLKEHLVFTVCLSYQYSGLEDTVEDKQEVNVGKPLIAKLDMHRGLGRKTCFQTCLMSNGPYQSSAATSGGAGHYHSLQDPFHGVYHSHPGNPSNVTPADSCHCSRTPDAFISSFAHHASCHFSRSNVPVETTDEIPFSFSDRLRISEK
Assay: The assay buffer consists of 200 mM Tris/HCl at pH 7.5, 0.8 M Na citrate, 100 μM EGTA, 100 μM DTT and 0.05% (w/v) CHAPS. […] Test compounds were dissolved in 100% (v/v) DMSO or a mixture containing 90% (v/v) DMSO and 10% (v/v) H2O at a stock concentration of 100 mM. Serial dilutions of test compounds were prepared using either 100% (v/v) DMSO or a mixture containing 90% (v/v) DMSO and 10% (v/v) H2O.

CCOc1ncc(NC(=O)Nc2cnc3cc(Cl)nn3c2C(C)C)cc1Cl
IC50: 5 nM

— ChEMBL document CHEMBL5726596, “Pyrazolo pyrimidine derivatives and their use as MALT1 inhibitors” (2017)
